This note sets out measurements from patent publication US20240182453A1, “NOVEL SUBSTITUTED PYRAZINE-CARBOXAMIDE DERIVATIVES” (Boehringer Ingelheim International GmbH, priority 2022, published 2024).

For orientation: IC50 means the concentration that gives 50% inhibition. The low end stands for higher potency, the high end for lower potency.

The target of this test is human metabotropic Glutamate 4 receptor (mGluR4) (Homo sapiens (Human), UniProt Q14833). The experiment in a line: Assay A: in vitro testing of mGluR4 potency (glutamate-induced cAMP lowering, HTRF cAMP). Format: cell-based. As to conditions: HEK293 cells overexpressing human mGluR4; 10 uM L-glutamic acid, 1 uM forskolin; compounds of the present invention. Here is the method: A. In Vitro Testing of mGluR4 Potency
Sequence of human metabotropic Glutamate 4 receptor (mGluR4) (Q14833 33-912): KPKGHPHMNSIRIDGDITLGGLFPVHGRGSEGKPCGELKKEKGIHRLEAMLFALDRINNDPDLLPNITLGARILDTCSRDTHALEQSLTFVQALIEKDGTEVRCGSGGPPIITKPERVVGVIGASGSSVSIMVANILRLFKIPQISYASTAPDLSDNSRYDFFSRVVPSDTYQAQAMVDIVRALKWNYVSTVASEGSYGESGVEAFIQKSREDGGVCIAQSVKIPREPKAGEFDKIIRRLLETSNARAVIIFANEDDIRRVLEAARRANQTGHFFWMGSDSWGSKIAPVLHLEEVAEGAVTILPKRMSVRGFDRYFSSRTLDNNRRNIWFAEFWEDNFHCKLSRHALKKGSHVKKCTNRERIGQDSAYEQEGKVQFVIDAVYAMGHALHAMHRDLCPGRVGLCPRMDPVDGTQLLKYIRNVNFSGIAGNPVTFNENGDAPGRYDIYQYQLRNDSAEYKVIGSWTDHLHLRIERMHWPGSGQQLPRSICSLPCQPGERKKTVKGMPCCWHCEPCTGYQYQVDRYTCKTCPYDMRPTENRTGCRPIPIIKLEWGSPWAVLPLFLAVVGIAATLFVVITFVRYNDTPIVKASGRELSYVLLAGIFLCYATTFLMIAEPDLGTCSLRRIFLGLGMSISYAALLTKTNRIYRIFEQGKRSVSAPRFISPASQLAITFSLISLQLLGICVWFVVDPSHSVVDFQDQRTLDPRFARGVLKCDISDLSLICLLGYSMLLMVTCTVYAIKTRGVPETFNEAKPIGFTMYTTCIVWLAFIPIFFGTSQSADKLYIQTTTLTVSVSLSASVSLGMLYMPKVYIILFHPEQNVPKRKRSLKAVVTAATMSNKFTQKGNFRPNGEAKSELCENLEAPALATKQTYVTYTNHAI
The in vitro activity of the compounds according to the invention may be investigated as follows:
The HEK293 cell overexpressing the human metabotropic Glutamate 4 receptor are thawed at 37° C. and immediately diluted with cell culture medium. After centrifugation, the cell pellet is re-suspended in medium and then distributed from a stirred spinner flask into the wells of the assay plate. The plates are incubated for one hour at room temperature before they are incubated for 24 hours at 37° C./5% CO2. After washing the cells in the plate three times with 80 uL HBSS/HEPES buffer (10 uL buffer remained in the wells after washing), 5 uL per well of compounds diluted in HBSS/HEPES buffer containing 0.2% BSA (final concentration: 0.1%) and 1 mM IBMX (final concentration: 0.5 mM) are added to the wells of the assay plate. Thereafter 5 uL per well of L-Glutamic acid (final concentration: 10 uM), forskolin (final concentration: 1 uM) and 1 mM IBMX (final concentration: 0.5 mM) dissolved in HBSS/HEPES buffer containing 0.2% BSA (final concentration: 0.1%) are added to the assay plate (final DMSO concentration: 1%). Several wells of the assay plate are used either for the positive and the negative controls or for the cAMP standard curve. The assay plate is incubated for 30 minutes at room temperature. Then 5 ul per well of Anti-cAMP-Antibody-d2 solution and 5 ul per well of cAMP-Europium Cryptate dilution are added to all wells of the plate and the plate is incubated another 60 minutes light protected at room temperature. The emission at 615 nm and 665 nm (Excitation wavelength: 320 nm) are measured on the EnVision™ reader (Perkin Elmer). The ratio between the emission at 665 nm and 615 is calculated by the reader. The whole assay is performed in the dark or under green light.
The cAMP standard is prepared by diluting the cAMP stock solution with HBSS/Hepes buffer: 5 μl/well of the cAMP dilutions (in HBSS/Hepes buffer containing 1 mM IBMX and 0.2% BSA—final concentration: 0.5 mM IBMX and 0.1% BSA) are added to 10 ul/well HBSS/Hepes buffer plus 5 ul/well 4% DMSO in HBSS/Hepes containing 0.2% BSA (final DMSO concentration: 1%—like in the wells containing compounds) in the wells of the assay plate. The final cAMP concentrations in the assay plate are: 0, 0.17, 0.69, 2.78, 11.1, 44.5, 178, and 712 nM (two wells/cAMP concentration).
Each assay microtiter plate contained also wells with vehicle controls instead of compound as controls for L-Glutamic acid induced signal (negative control; 100% CTL; 10 uM L-Glutamic acid+1 uM forskolin+0.5 mM IBMX+1% DMSO) and wells with vehicle controls without L-Glutamic acid as controls for non-specific changes in signal (positive control; 0% CTL; 0 uM L-Glutamic acid+1 uM forskolin+0.5 mM IBMX+1% DMSO).
The analysis of the data is performed by the calculation the ratio between the emission at 665 nm and the emission at 615 nm (Em665/Em615 ratio). Thereafter the signals of the compounds are normalized using the positive and negative controls by the following formula:
PoC=100×((Signal Sample−Positive Control)/(Negative Control−Positive Control))
For orientation: In TR-FRET formats the signal depends on donor and acceptor labels being close together.
On to `Cc1cnc(C(=O)NC(c2nc3cc(OC(F)(F)F)ccc3n2C)C2CCCOC2)cn1` (single isomer, unassigned) [Example 78-2, 5-methyl-N-{[1-methyl-5-(trifluoromethoxy)-1H-1,3-benzodiazol-2-yl](oxan-3-yl)methyl]pyrazine-2-carboxamide], for which 25 nM corresponded to half-maximal inhibition (IC50). `COCCn1c([C@@H](NC(=O)c2cnc(C(F)F)cn2)C2CC2)nc2cc(Cl)ccc21` [Example 11, N-[(S)-[5-chloro-1-(2-methoxyethyl)-1H-1,3-benzodiazol-2-yl](cyclopropyl)methyl]-5-(difluoromethyl)pyrazine-2-carboxamide] returned a 50% inhibitory concentration (IC50) of 3 nM. With `CCn1c([C@@H](NC(=O)c2cnc(C)cn2)[C@]2(O)CCOC2)nc2cc(C(F)(F)F)ccc21` [Example 156, N-[(R)-[1-ethyl-5-(trifluoromethyl)-1H-1,3-benzodiazol-2-yl][(3R)-3-hydroxyoxolan-3-yl]methyl]-5-methylpyrazine-2-carboxamide], the IC50 came out at 39 nM. The molecule `Cc1cnc(C(=O)N[C@H](c2nc3ccc(C(F)(F)F)cc3n2C)C2CC2)cn1` [Example 63, N-[(S)-cyclopropyl[1-methyl-6-(trifluoromethyl)-1H-1,3-benzodiazol-2-yl]methyl]-5-methylpyrazine-2-carboxamide] had a half-inhibitory concentration (IC50) of 14 nM.

For the molecule `CCn1c(C(NC(=O)c2cnc(C)cn2)C2CCOC2)nc2ccc(Cl)cc21` (single isomer, unassigned) [Example 164, N-[(6-chloro-1-ethyl-1H-1,3-benzodiazol-2-yl)(oxolan-3-yl)methyl]-5-methylpyrazine-2-carboxamide], the half-maximal inhibitory concentration (IC50) was 35 nM. Turning to `COCCn1c([C@@H](NC(=O)c2cnc(C)cn2)C2CC2)nc2c(C)c(C#N)ccc21` [Example 18, N-[(S)-[5-cyano-1-(2-methoxyethyl)-4-methyl-1H-1,3-benzodiazol-2-yl](cyclopropyl)methyl]-5-methylpyrazine-2-carboxamide], the half-maximal inhibitory concentration (IC50) came to 7 nM. As for `Cc1cnc(C(=O)N[C@H](c2nc3cc(F)ccc3n2CC(F)F)C2CC2)cn1` [Example 10, N-[(S)-cyclopropyl[1-(2,2-difluoroethyl)-5-fluoro-1H-1,3-benzodiazol-2-yl]methyl]-5-methylpyrazine-2-carboxamide], the midpoint of inhibition, the IC50, lay at 5 nM. Regarding `COCCn1c([C@@H](NC(=O)c2cnc(C)cn2)C2CC2)nc2cc(OC(F)(F)F)ccc21` [Example 12, N-[(S)-cyclopropyl[1-(2-methoxyethyl)-5-(trifluoromethoxy)-1H-1,3-benzodiazol-2-yl]methyl]-5-methylpyrazine-2-carboxamide], half-maximal inhibition (IC50) was put at 2 nM.

As to `CCn1c([C@@H](NC(=O)c2cnc(C)cn2)C(C)(C)O)nc2cc(F)ccc21` [Example 39, N-[(1R)-1-(1-ethyl-5-fluoro-1H-1,3-benzodiazol-2-yl)-2-hydroxy-2-methylpropyl]-5-methylpyrazine-2-carboxamide], the IC50 came out at 28 nM. For the molecule `COCCn1c([C@@H](NC(=O)c2cnc(C)cn2)[C@@H]2CCCO2)nc2cc(OC(F)(F)F)ccc21` [Example 58, N-[(R)-[1-(2-methoxyethyl)-5-(trifluoromethoxy)-1H-1,3-benzodiazol-2-yl][(2S)-oxolan-2-yl]methyl]-5-methylpyrazine-2-carboxamide], half-maximal inhibition (IC50) was put at 4 nM. `COCCn1c([C@@H](NC(=O)c2cnc(C)cn2)C2CC2)nc2cc(OC(F)F)ccc21` [Example 13, N-[(S)-cyclopropyl[5-(difluoromethoxy)-1-(2-methoxyethyl)-1H-1,3-benzodiazol-2-yl]methyl]-5-methylpyrazine-2-carboxamide] displayed a concentration for half-maximal inhibition (IC50) of 7 nM. As to `CCn1c([C@@H](NC(=O)c2cnc(C(F)F)cn2)C2CC2)nc2cc(F)ccc21` [Example 3, N-[(S)-cyclopropyl(1-ethyl-5-fluoro-1H-1,3-benzodiazol-2-yl)methyl]-5-(difluoromethyl)pyrazine-2-carboxamide], inhibition was half-maximal at 3 nM (IC50). `COCCn1c(C(NC(=O)c2cnc(C)cn2)C2CCCO2)nc2cc(C(F)(F)F)ccc21` (single isomer, unassigned) [Example 19-1, N-{[1-(2-methoxyethyl)-5-(trifluoromethyl)-1H-1,3-benzodiazol-2-yl](oxolan-2-yl)methyl}-5-methylpyrazine-2-carboxamide] showed an IC50 of 13 nM. `Cc1cnc(C(=O)N[C@H](c2nc3cc(Cl)ccc3n2C)C2CC2)cn1` [Example 47, N-[(S)-(5-chloro-1-methyl-1H-1,3-benzodiazol-2-yl)(cyclopropyl)methyl]-5-methylpyrazine-2-carboxamide] came in with an IC50 of 9 nM. With `COCCn1c([C@@H](NC(=O)c2cnc(C)cn2)C(C)(C)O)nc2cc(C(F)(F)F)ccc21` [Example 126, N-[(1R)-2-hydroxy-1-[1-(2-methoxyethyl)-5-(trifluoromethyl)-1H-1,3-benzodiazol-2-yl]-2-methylpropyl]-5-methylpyrazine-2-carboxamide], the 50% inhibitory concentration (IC50) came to 14 nM.

As to `Cc1cnc(C(=O)N[C@H](c2nc3c(Cl)c(Br)ccc3n2C)C2CC2)cn1` [Example 42, N-[(S)-(5-bromo-4-chloro-1-methyl-1H-1,3-benzodiazol-2-yl)(cyclopropyl)methyl]-5-methylpyrazine-2-carboxamide], it took 2 nM to reach half-maximal inhibition (IC50). With `CO[C@H](C)[C@H](NC(=O)c1cnc(C)cn1)c1nc2cc(OC(F)(F)F)ccc2n1C1CC1` [Example 131, N-[(1R,2R)-1-[1-cyclopropyl-5-(trifluoromethoxy)-1H-1,3-benzodiazol-2-yl]-2-methoxypropyl]-5-methylpyrazine-2-carboxamide], the half-inhibitory concentration (IC50) is 14 nM. As for `Cc1cnc(C(=O)N[C@@H](CC2CC2)c2nc3cc(F)c(F)cc3n2CCOC(F)F)cn1` [Example 128, N-[(1S)-2-cyclopropyl-1-{1-[2-(difluoromethoxy)ethyl]-5,6-difluoro-1H-1,3-benzodiazol-2-y1}ethyl]-5-methylpyrazine-2-carboxamide], the IC50 was 8 nM. With `CO[C@H](C)[C@H](NC(=O)c1cnc(C)cn1)c1nc2cc(Cl)ccc2n1C` [Example 29, N-[(1R,2R)-1-(5-chloro-1-methyl-1H-1,3-benzodiazol-2-yl)-2-methoxypropyl]-5-methylpyrazine-2-carboxamide], the concentration for half-maximal inhibition (IC50) came out at 11 nM. `Cc1cnc(C(=O)N[C@H](c2nc3cc(F)ccc3n2C(C)C)[C@H]2CCOC2)cn1` [Example 84, N-[(S)-[5-fluoro-1-(propan-2-yl)-1H-1,3-benzodiazol-2-yl][(3R)-oxolan-3-yl]methyl]-5-methylpyrazine-2-carboxamide] showed a half-maximal inhibitory concentration (IC50) of 26 nM. Take `CC(C)(O)[C@H](NC(=O)c1cnc(C(F)F)cn1)c1nc2cc(F)ccc2n1CC(F)F` [Example 83, N-[(1R)-1-[1-(2,2-difluoroethyl)-5-fluoro-1H-1,3-benzodiazol-2-yl]-2-hydroxy-2-methylpropyl]-5-(difluoromethyl)pyrazine-2-carboxamide]: the half-inhibitory concentration (IC50) worked out at 38 nM.

For `Cn1c([C@@H](NC(=O)c2cnc(C(F)F)cn2)C2CC2)nc2cc(F)ccc21` [Example 30, N-[(S)-cyclopropyl (5-fluoro-1-methyl-1H-1,3-benzodiazol-2-yl)methyl]-5-(difluoromethyl)pyrazine-2-carboxamide], the IC50 amounted to 18 nM.
